How the values were obtained:
Format in all cases: biochemical
FGFR2 = FGFR2 (Homo sapiens (Human), UniProt P21802); test: FGFR Enzymatic Assay (FRET peptide phosphorylation), FGFR2; details: ATP 100 μM, enzyme 0.01 nM
Protocol: (§1) The inhibitor potency of the exemplified compounds was measured in an enzyme assay that measures peptide phosphorylation using FRET measurements to detect product formation. Inhibitors were serially diluted in DMSO and a volume of 0.5 μL was transferred to the wells of a 384-well plate. For FGFR3, a 10 μL volume of FGFR3 enzyme (Millipore) diluted in assay buffer (50 mM HEPES, 10 mM MgCl2, 1 mM EGTA, 0.01% Tween-20, 5 mM DTT, pH 7.5) was added to the plate and pre-incubated for 5-10 minutes. Appropriate controls (enzyme blank and enzyme with no inhibitor) were included on the plate. The assay was initiated by the addition of a 10 μL solution containing biotinylated EQEDEPEGDYFEWLE peptide substrate (SEQ ID NO: 1) and ATP (final concentrations of 500 nM and 140 μM respectively) in assay buffer to the wells. The plate was incubated at 25° C. for 1 hr. The reactions were ended with the addition of 10 μL/well of quench solution (50 mM Tris, 150 mM NaCl, 0.5 mg/mL BSA, pH 7.8; 30 mM EDTA with Perkin Elmer Lance Reagents at 3.75 nM Eu-antibody PY20 and 180 nM APC-Streptavidin). The plate was allowed to equilibrate for ˜1 hr before scanning the wells on a PheraStar plate reader (BMG Labtech).
(§2) FGFR1 and FGFR2 were measured under equivalent conditions with the following changes in enzyme and ATP concentrations: FGFR1, 0.02 nM and 210 μM, respectively and FGFR2, 0.01 nM and 100 μM, respectively. The enzymes were purchased from Millipore or Invitrogen.
(§3) GraphPad prism3 was used to analyze the data. The IC50 values were derived by fitting the data to the equation for a sigmoidal dose-response with a variable slope. Y=Bottom+(Top−Bottom)/(1+10^((Log IC50−X)*HillSlope)) where X is the logarithm of concentration and Y is the response.

FGFR1 = FGFR1 (Homo sapiens (Human), UniProt P11362); test: FGFR Enzymatic Assay (FRET peptide phosphorylation), FGFR1; details: ATP 210 μM, enzyme 0.02 nM
Chain of FGFR1 (P11362 22-822): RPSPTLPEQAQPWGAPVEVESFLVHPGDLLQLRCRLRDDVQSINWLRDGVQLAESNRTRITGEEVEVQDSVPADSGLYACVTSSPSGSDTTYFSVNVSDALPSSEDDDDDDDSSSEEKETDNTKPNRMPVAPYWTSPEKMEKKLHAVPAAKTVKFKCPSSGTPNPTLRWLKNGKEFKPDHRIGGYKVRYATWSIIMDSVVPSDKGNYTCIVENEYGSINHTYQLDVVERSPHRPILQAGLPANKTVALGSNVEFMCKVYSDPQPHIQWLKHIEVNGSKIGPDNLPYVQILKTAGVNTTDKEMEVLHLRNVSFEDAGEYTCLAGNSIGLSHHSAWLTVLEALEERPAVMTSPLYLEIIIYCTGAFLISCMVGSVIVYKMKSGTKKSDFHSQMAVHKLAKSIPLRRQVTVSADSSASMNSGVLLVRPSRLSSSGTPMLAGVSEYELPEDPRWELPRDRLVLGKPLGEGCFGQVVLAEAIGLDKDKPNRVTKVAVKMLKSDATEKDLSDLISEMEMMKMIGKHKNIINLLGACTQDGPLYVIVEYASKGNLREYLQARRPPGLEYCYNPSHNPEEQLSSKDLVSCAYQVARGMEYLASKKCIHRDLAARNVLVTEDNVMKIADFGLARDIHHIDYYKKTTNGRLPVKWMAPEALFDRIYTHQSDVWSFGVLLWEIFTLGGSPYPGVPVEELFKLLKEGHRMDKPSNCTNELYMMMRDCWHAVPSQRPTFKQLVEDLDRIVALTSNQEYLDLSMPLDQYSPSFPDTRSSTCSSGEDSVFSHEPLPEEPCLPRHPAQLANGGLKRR
Protocol: as §1, §2, §3

FGFR3 = FGFR3 (Homo sapiens (Human), UniProt P22607); test: FGFR Enzymatic Assay (FRET peptide phosphorylation), FGFR3; details: ATP 140 μM
Chain of FGFR3 (P22607 23-806): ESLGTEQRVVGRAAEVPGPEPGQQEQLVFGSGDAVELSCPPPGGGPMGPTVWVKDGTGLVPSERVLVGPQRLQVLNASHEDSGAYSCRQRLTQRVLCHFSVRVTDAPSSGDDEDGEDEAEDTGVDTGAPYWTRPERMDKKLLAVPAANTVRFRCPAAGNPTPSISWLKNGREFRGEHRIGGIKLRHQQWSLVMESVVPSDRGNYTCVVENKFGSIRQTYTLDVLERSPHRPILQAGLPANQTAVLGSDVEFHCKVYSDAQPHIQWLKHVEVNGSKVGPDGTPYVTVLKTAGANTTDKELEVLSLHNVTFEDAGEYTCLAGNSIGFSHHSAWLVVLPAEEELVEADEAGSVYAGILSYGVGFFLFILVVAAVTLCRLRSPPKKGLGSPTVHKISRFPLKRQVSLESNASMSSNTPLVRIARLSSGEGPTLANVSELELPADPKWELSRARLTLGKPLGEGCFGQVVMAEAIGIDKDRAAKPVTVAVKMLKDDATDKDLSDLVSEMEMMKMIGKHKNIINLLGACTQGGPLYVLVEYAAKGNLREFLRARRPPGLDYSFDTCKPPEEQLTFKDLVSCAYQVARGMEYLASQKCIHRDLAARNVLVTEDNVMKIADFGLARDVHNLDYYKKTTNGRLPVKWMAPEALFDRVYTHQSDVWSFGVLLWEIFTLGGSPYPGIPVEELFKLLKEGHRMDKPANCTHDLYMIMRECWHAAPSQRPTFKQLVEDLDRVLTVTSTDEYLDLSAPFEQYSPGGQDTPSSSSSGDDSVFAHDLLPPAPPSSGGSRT
Protocol: as §1, §3

Measured: IC50

Chain of FGFR2 (P21802 22-821): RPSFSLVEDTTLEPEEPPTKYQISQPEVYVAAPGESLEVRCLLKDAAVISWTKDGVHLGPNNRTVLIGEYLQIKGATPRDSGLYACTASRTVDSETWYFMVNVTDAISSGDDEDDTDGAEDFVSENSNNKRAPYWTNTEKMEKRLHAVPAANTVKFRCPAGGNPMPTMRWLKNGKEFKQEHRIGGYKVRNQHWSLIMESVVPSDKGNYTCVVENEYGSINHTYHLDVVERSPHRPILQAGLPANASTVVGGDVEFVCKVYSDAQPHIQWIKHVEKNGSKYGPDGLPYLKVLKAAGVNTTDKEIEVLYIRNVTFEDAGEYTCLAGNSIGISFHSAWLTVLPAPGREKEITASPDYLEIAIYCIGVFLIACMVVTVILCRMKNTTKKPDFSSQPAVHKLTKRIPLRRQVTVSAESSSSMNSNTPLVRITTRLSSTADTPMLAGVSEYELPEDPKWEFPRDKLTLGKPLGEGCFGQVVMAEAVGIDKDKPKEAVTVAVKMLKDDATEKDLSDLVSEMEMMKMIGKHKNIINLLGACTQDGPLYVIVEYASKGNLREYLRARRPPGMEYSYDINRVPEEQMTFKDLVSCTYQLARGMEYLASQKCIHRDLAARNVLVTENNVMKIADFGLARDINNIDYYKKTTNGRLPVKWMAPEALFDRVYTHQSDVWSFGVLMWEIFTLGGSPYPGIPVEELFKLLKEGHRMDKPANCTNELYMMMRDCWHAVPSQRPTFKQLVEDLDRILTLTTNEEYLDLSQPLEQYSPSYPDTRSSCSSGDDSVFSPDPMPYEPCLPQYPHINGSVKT

COc1cc(OC)c(F)c(N2Cc3cnc(N)c(C)c3N(c3ccccc3F)C2=O)c1F [Example 45, 7-amino-3-(2,6-difluoro-3,5-dimethoxyphenyl)-1-(2-fluorophenyl)-8-methyl-3,4-dihydropyrido[4,3-d]pyrimidin-2(1H)-one]
< 100 nM: all assays above

COc1cc(OC)c(F)c(N2Cc3cnc(N)c(C)c3N(c3nnn(C)n3)C2=O)c1F [Example 46, 7-amino-3-(2,6-difluoro-3,5-dimethoxyphenyl)-8-methyl-1-(2-methyl-2H-tetrazol-5-yl)-3,4-dihydropyrido[4,3-d]pyrimidin-2(1H)-one]
< 100 nM: all assays above

COc1cc(OC)c(F)c(N2Cc3cnc(N)c(C)c3N(Cc3cnn(C)c3)C2=O)c1F [Example 47, 7-amino-3-(2,6-difluoro-3,5-dimethoxyphenyl)-8-methyl-1-[(1-methyl-1H-pyrazol-4-yl)methyl]-3,4-dihydropyrido[4,3-d]pyrimidin-2(1H)-one]
< 100 nM: all assays above

COC(=O)Nc1ncc2c(c1C)N(C)C(=O)N(c1c(F)c(OC)cc(OC)c1F)C2 [Example 48, methyl [3-(2,6-difluoro-3,5-dimethoxyphenyl)-1,8-dimethyl-2-oxo-1,2,3,4-tetrahydropyrido [4,3-d]pyrimidin-7-yl]carbamate]
< 100 nM: all assays above

COc1cc(OC)c(F)c(N2Cc3cnc(N)c(C#N)c3N(CC3CC3)C2=O)c1F [Example 49, 7-amino-1-(cyclopropylmethyl)-3-(2,6-difluoro-3,5-dimethoxyphenyl)-2-oxo-1,2,3,4-tetrahydropyrido[4,3-d]pyrimidine-8-carbonitrile]
< 100 nM: all assays above

COc1cc(OC)c(F)c(N2Cc3cnc(N)c(C#N)c3N(C3CCCC3)C2=O)c1F [Example 50, 7-amino-1-cyclopentyl-3-(2,6-difluoro-3,5-dimethoxyphenyl)-2-oxo-1,2,3,4-tetrahydropyrido[4,3-d]pyrimidine-8-carbonitrile]
< 100 nM: all assays above

COc1cc(OC)c(F)c(N2Cc3cnc(N)c(C#N)c3N(Cc3cnn(C)c3)C2=O)c1F [Example 51, 7-amino-3-(2,6-difluoro-3,5-dimethoxyphenyl)-1-[(1-methyl-1H-pyrazol-4-yl)methyl]-2-oxo-1,2,3,4-tetrahydropyrido[4,3-d]pyrimidine-8-carbonitrile]
< 100 nM: all assays above

COc1cc(OC)c(F)c(N2Cc3cnc(N)c(C#N)c3N(Cc3cc(F)cc(F)c3)C2=O)c1F [Example 52, 7-amino-1-(3,5-difluorobenzyl)-3-(2,6-difluoro-3,5-dimethoxyphenyl)-2-oxo-1,2,3,4-tetrahydropyrido[4,3-d]pyrimidine-8-carbonitrile]
< 100 nM: all assays above

COc1cc(OC)c(F)c(N2Cc3cnc(N)c(C#N)c3N(c3ccccc3F)C2=O)c1F [Example 53, 7-amino-3-(2,6-difluoro-3,5-dimethoxyphenyl)-1-(2-fluorophenyl)-2-oxo-1,2,3,4-tetrahydropyrido[4,3-d]pyrimidine-8-carbonitrile]
< 100 nM: all assays above

COc1cc(OC)c(F)c(N2Cc3cnc(N)c(Cl)c3N(C)C2=O)c1F [Example 54, 7-amino-8-chloro-3-(2,6-difluoro-3,5-dimethoxyphenyl)-1-methyl-3,4-dihydropyrido[4,3-d]pyrimidin-2(1H)-one]
< 100 nM: all assays above

Source: patent US10040790B2, “Bicyclic heterocycles as FGFR inhibitors” (Incyte Corporation, priority 2013, dated 2018)
